{"source": "ChEMBL document CHEMBL1201862", "about": "“PubChem BioAssay data set” (2004)", "test_in_all_cases": "growth of human tumour cells (NCI), 48 h", "key": {"786-0": {"test_system": "786-0"}, "A498": {"test_system": "A498"}, "A549": {"test_system": "A549"}, "ACHN": {"test_system": "ACHN"}, "BT-549": {"test_system": "BT-549"}, "CAKI-1": {"test_system": "CAKI-1"}, "CCRF-CEM": {"test_system": "CCRF-CEM"}, "COLO 205": {"test_system": "COLO 205"}, "DU-145": {"test_system": "DU-145"}, "EKVX": {"test_system": "EKVX"}, "HCT-116": {"test_system": "HCT-116"}, "HCT-15": {"test_system": "HCT-15"}, "HL-60": {"test_system": "HL-60"}, "HOP-62": {"test_system": "HOP-62"}, "HOP-92": {"test_system": "HOP-92"}, "HT-29": {"test_system": "HT-29"}, "Hs-578T": {"test_system": "Hs-578T"}, "IGROV-1": {"test_system": "IGROV-1"}, "K562": {"test_system": "K562"}, "KM12": {"test_system": "KM12"}, "LOX IMVI": {"test_system": "LOX IMVI"}, "M14": {"test_system": "M14"}, "MCF7": {"test_system": "MCF7"}, "MDA-MB-231": {"test_system": "MDA-MB-231"}, "MDA-MB-435": {"test_system": "MDA-MB-435"}, "MDA-N": {"test_system": "MDA-N"}, "MOLT-4": {"test_system": "MOLT-4"}, "Malme-3M": {"test_system": "Malme-3M"}, "NCI-H226": {"test_system": "NCI-H226"}, "NCI-H23": {"test_system": "NCI-H23"}, "NCI-H460": {"test_system": "NCI-H460"}, "NCI-H522": {"test_system": "NCI-H522"}, "NCI/ADR-RES": {"test_system": "NCI/ADR-RES"}, "OVCAR-3": {"test_system": "OVCAR-3"}, "OVCAR-4": {"test_system": "OVCAR-4"}, "OVCAR-5": {"test_system": "OVCAR-5"}, "OVCAR-8": {"test_system": "OVCAR-8"}, "PC-3": {"test_system": "PC-3"}, "RPMI-8226": {"test_system": "RPMI-8226"}, "RXF 393": {"test_system": "RXF 393"}, "SF-268": {"test_system": "SF-268"}, "SF-295": {"test_system": "SF-295"}, "SF-539": {"test_system": "SF-539"}, "SK-MEL-28": {"test_system": "SK-MEL-28"}, "SK-MEL-2": {"test_system": "SK-MEL-2"}, "SK-MEL-5": {"test_system": "SK-MEL-5"}, "SK-OV-3": {"test_system": "SK-OV-3"}, "SN12C": {"test_system": "SN12C"}, "SNB-19": {"test_system": "SNB-19"}, "SNB-75": {"test_system": "SNB-75"}, "SR": {"test_system": "SR"}, "SW-620": {"test_system": "SW-620"}, "T47D": {"test_system": "T47D"}, "TK-10": {"test_system": "TK-10"}, "U-251": {"test_system": "U-251"}, "UACC-257": {"test_system": "UACC-257"}, "UACC-62": {"test_system": "UACC-62"}, "UO-31": {"test_system": "UO-31"}}, "note": "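Results reflect a 48-hour exposure of cells in 96-well plates to compound at five concentrations. GI50 marks 50% less growth.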 Activity calls are given as the source filed them. Cut-off read from the data, not from the text of the source: active = GI50 up to about 1.1 µM and inactive = higher.", "data": [{"smiles": "O=C(O)CN1C(=O)OC(c2ccccc2)C1=O", "note": "(stereo not drawn)", "values": [{"measurement": "GI50", "setting": "786-0", "result": "> 100 µM (inactive)"}, {"measurement": "GI50", "setting": "A498", "result": "> 100 µM (inactive)"}, {"measurement": "GI50", "setting": "A549", "result": "> 100 µM (inactive)"}, {"measurement": "GI50", "setting": "ACHN", "result": "> 100 µM (inactive)"}, {"measurement": "GI50", "setting": "BT-549", "result": "> 100 µM (inactive)"}, {"measurement": "GI50", "setting": "CAKI-1", "result": "> 100 µM (inactive)"}, {"measurement": "GI50", "setting": "CCRF-CEM", "result": "> 100 µM (inactive)"}, {"measurement": "GI50", "setting": "COLO 205", "result": "> 100 µM (inactive)"}, {"measurement": "GI50", "setting": "DU-145", "result": "> 100 µM (inactive)"}, {"measurement": "GI50", "setting": "EKVX", "result": "> 100 µM (inactive)"}, {"measurement": "GI50", "setting": "HCT-116", "result": "> 100 µM (inactive)"}, {"measurement": "GI50", "setting": "HCT-15", "result": "> 100", "unit": "µM"}, {"measurement": "GI50", "setting": "HL-60", "result": "> 100 µM (inactive)"}, {"measurement": "GI50", "setting": "HOP-62", "result": "> 100 µM (inactive)"}, {"measurement": "GI50", "setting": "HOP-92", "result": "> 100 µM (inactive)"}, {"measurement": "GI50", "setting": "HT-29", "result": "> 100 µM (inactive)"}, {"measurement": "GI50", "setting": "Hs-578T", "result": "> 100 µM (inactive)"}, {"measurement": "GI50", "setting": "IGROV-1", "result": "> 100 µM (inactive)"}, {"measurement": "GI50", "setting": "K562", "result": "> 100 µM (inactive)"}, {"measurement": "GI50", "setting": "KM12", "result": "> 100 µM (inactive)"}, {"measurement": "GI50", "setting": "LOX IMVI", "result": "> 100 µM (inactive)"}, {"measurement": "GI50", "setting": "M14", "result": "> 100 µM (inactive)"}, {"measurement": "GI50", "setting": "MCF7", "result": "> 100 µM (inactive)"}, {"measurement": "GI50", "setting": "MDA-MB-231", "result": "> 100 µM (inactive)"}, {"measurement": "GI50", "setting": "MDA-MB-435", "result": "> 100 µM (inactive)"}, {"measurement": "GI50", "setting": "MDA-N", "result": "> 100 µM (inactive)"}, {"measurement": "GI50", "setting": "MOLT-4", "result": "> 100 µM (inactive)"}, {"measurement": "GI50", "setting": "Malme-3M", "result": "> 100 µM (inactive)"}, {"measurement": "GI50", "setting": "NCI-H226", "result": "> 100 µM (inactive)"}, {"measurement": "GI50", "setting": "NCI-H23", "result": "> 100 µM (inactive)"}, {"measurement": "GI50", "setting": "NCI-H460", "result": "> 100 µM (inactive)"}, {"measurement": "GI50", "setting": "NCI-H522", "result": "> 100 µM (inactive)"}, {"measurement": "GI50", "setting": "NCI/ADR-RES", "result": "> 100 µM (inactive)"}, {"measurement": "GI50", "setting": "OVCAR-3", "result": "> 100 µM (inactive)"}, {"measurement": "GI50", "setting": "OVCAR-4", "result": "> 100 µM (inactive)"}, {"measurement": "GI50", "setting": "OVCAR-5", "result": "> 100 µM (inactive)"}, {"measurement": "GI50", "setting": "OVCAR-8", "result": "> 100 µM (inactive)"}, {"measurement": "GI50", "setting": "PC-3", "result": "> 100 µM (inactive)"}, {"measurement": "GI50", "setting": "RPMI-8226", "result": "> 100 µM (inactive)"}, {"measurement": "GI50", "setting": "RXF 393", "result": "> 100 µM (inactive)"}, {"measurement": "GI50", "setting": "SF-268", "result": "> 100 µM (inactive)"}, {"measurement": "GI50", "setting": "SF-295", "result": "> 100 µM (inactive)"}, {"measurement": "GI50", "setting": "SF-539", "result": "> 100 µM (inactive)"}, {"measurement": "GI50", "setting": "SK-MEL-28", "result": "> 100 µM (inactive)"}, {"measurement": "GI50", "setting": "SK-MEL-2", "result": "> 100 µM (inactive)"}, {"measurement": "GI50", "setting": "SK-MEL-5", "result": "> 100 µM (inactive)"}, {"measurement": "GI50", "setting": "SK-OV-3", "result": "> 100 µM (inactive)"}, {"measurement": "GI50", "setting": "SN12C", "result": "> 100 µM (inactive)"}, {"measurement": "GI50", "setting": "SNB-19", "result": "> 100 µM (inactive)"}, {"measurement": "GI50", "setting": "SNB-75", "result": "> 100 µM (inactive)"}, {"measurement": "GI50", "setting": "SR", "result": "> 100 µM (inactive)"}, {"measurement": "GI50", "setting": "SW-620", "result": "> 100 µM (inactive)"}, {"measurement": "GI50", "setting": "T47D", "result": "> 100 µM (inactive)"}, {"measurement": "GI50", "setting": "TK-10", "result": "> 100 µM (inactive)"}, {"measurement": "GI50", "setting": "U-251", "result": "> 100 µM (inactive)"}, {"measurement": "GI50", "setting": "UACC-257", "result": "> 100 µM (inactive)"}, {"measurement": "GI50", "setting": "UACC-62", "result": "> 100 µM (inactive)"}, {"measurement": "GI50", "setting": "UO-31", "result": "> 100 µM (inactive)"}]}]}
